test system: Human immunodeficiency virus 1; test: Antiviral activity against HIV1 infected in cell culture in presence of 10% FBS; format: functional, organism-based

| SMILES | EC50 [µM] |
| --- | --- |
| Cn1c(C2(C)CCCS2)nc(C(=O)NCc2ccc(F)cc2)c(O)c1=O (racemic) | 0.015 |
| CN1CCN(c2cc(F)ccc2CNC(=O)c2nc(C3CCOC3)n(C)c(=O)c2O)C1=O (racemic) | 0.007 |
| CN(C)S(=O)(=O)c1cc(F)ccc1CNC(=O)c1nc(C2CCOC2)n(C)c(=O)c1O (racemic) | 0.004 |
| Cn1c(-c2ccco2)nc(C(=O)NCc2ccc(F)cc2)c(O)c1=O | 0.424 |
| Cn1c(C2COCC2O)nc(C(=O)NCc2ccc(F)cc2)c(O)c1=O (racemic) | 0.048 |
| CN1C(C)(C)CN(c2cc(F)ccc2CNC(=O)c2nc(C3CCOC3)n(C)c(=O)c2O)S1(=O)=O (racemic) | 0.002 |
| Cc1ncnn1-c1cc(F)ccc1CNC(=O)c1nc(C2CCOCC2)n(C)c(=O)c1O | 0.009 |
| CN(C)S(=O)(=O)c1cc(F)ccc1CNC(=O)c1nc(C2CCOCC2)n(C)c(=O)c1O | 0.004 |
| Cn1c(C2CCOC2)nc(C(=O)NCc2ccc(F)cc2S(C)(=O)=O)c(O)c1=O (racemic) | 0.014 |
| Cn1ncnc1-c1cc(F)ccc1CNC(=O)c1nc(C2CCOCC2)n(C)c(=O)c1O | 0.004 |
| Cn1cnnc1-c1cc(F)ccc1CNC(=O)c1nc(C2CCOC2)n(C)c(=O)c1O (racemic) | 0.028 |
| CN1C(C)(C)CN(c2cc(F)ccc2CNC(=O)c2nc(C3CCOCC3)n(C)c(=O)c2O)S1(=O)=O | 0.002 |
| Cn1c(C2CCOCC2)nc(C(=O)NCc2ccc(F)cc2N2CCCCS2(=O)=O)c(O)c1=O | 0.004 |
| Cc1cnnn1-c1cc(F)ccc1CNC(=O)c1nc(C2CCOCC2)n(C)c(=O)c1O | 0.008 |
| Cn1c(C2=CCOC2)nc(C(=O)NCc2ccc(F)cc2)c(O)c1=O | 0.206 |

test system: Human immunodeficiency virus 1; test: Antiviral activity against HIV1 infected in cell culture in presence of 45 mg/ml human serum albumin and 10% FBS; format: functional, organism-based

| SMILES | EC50 [µM] |
| --- | --- |
| Cn1c(C2(C)CCCS2)nc(C(=O)NCc2ccc(F)cc2)c(O)c1=O (racemic) | 0.153 |
| CN1CCN(c2cc(F)ccc2CNC(=O)c2nc(C3CCOC3)n(C)c(=O)c2O)C1=O (racemic) | 0.03 |
| CN(C)S(=O)(=O)c1cc(F)ccc1CNC(=O)c1nc(C2CCOC2)n(C)c(=O)c1O (racemic) | 0.025 |
| Cn1c(-c2ccco2)nc(C(=O)NCc2ccc(F)cc2)c(O)c1=O | 14.5 |
| Cn1c(C2COCC2O)nc(C(=O)NCc2ccc(F)cc2)c(O)c1=O (racemic) | 0.126 |
| CN1C(C)(C)CN(c2cc(F)ccc2CNC(=O)c2nc(C3CCOC3)n(C)c(=O)c2O)S1(=O)=O (racemic) | 0.022 |
| Cc1ncnn1-c1cc(F)ccc1CNC(=O)c1nc(C2CCOCC2)n(C)c(=O)c1O | 0.014 |
| CN(C)S(=O)(=O)c1cc(F)ccc1CNC(=O)c1nc(C2CCOCC2)n(C)c(=O)c1O | 0.015 |
| Cn1c(C2CCOC2)nc(C(=O)NCc2ccc(F)cc2S(C)(=O)=O)c(O)c1=O (racemic) | 0.033 |
| Cn1ncnc1-c1cc(F)ccc1CNC(=O)c1nc(C2CCOCC2)n(C)c(=O)c1O | 0.007 |
| Cn1cnnc1-c1cc(F)ccc1CNC(=O)c1nc(C2CCOC2)n(C)c(=O)c1O (racemic) | 0.027 |
| CN1C(C)(C)CN(c2cc(F)ccc2CNC(=O)c2nc(C3CCOCC3)n(C)c(=O)c2O)S1(=O)=O | 0.007 |
| Cn1c(C2CCOCC2)nc(C(=O)NCc2ccc(F)cc2N2CCCCS2(=O)=O)c(O)c1=O | 0.011 |
| Cc1cnnn1-c1cc(F)ccc1CNC(=O)c1nc(C2CCOCC2)n(C)c(=O)c1O | 0.018 |
| Cn1c(C2=CCOC2)nc(C(=O)NCc2ccc(F)cc2)c(O)c1=O | 1.78 |

molecular target: Human immunodeficiency virus type 1 integrase (Human immunodeficiency virus 1, UniProt Q7ZJM1); test: Inhibition of HIV-1 integrase strand transfer activity
Sequence (Q7ZJM1 whole entry): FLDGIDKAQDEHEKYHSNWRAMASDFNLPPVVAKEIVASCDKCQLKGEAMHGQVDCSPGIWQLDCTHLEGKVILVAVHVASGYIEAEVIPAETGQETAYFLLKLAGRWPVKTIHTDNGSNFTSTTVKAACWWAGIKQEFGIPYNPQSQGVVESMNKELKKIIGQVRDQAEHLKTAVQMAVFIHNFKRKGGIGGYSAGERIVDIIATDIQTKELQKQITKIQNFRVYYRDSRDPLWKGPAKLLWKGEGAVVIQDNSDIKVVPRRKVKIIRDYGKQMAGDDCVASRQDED

| SMILES | IC50 [µM] |
| --- | --- |
| Cn1c(C2(C)CCCS2)nc(C(=O)NCc2ccc(F)cc2)c(O)c1=O (racemic) | 0.005 |
| CN1CCN(c2cc(F)ccc2CNC(=O)c2nc(C3CCOC3)n(C)c(=O)c2O)C1=O (racemic) | 0.006 |
| CN(C)S(=O)(=O)c1cc(F)ccc1CNC(=O)c1nc(C2CCOC2)n(C)c(=O)c1O (racemic) | 0.01 |
| Cn1c(-c2ccco2)nc(C(=O)NCc2ccc(F)cc2)c(O)c1=O | 0.021 |
| Cn1c(C2COCC2O)nc(C(=O)NCc2ccc(F)cc2)c(O)c1=O (racemic) | 0.006 |
| CN1C(C)(C)CN(c2cc(F)ccc2CNC(=O)c2nc(C3CCOC3)n(C)c(=O)c2O)S1(=O)=O (racemic) | 0.01 |
| Cc1ncnn1-c1cc(F)ccc1CNC(=O)c1nc(C2CCOCC2)n(C)c(=O)c1O | 0.008 |
| CN(C)S(=O)(=O)c1cc(F)ccc1CNC(=O)c1nc(C2CCOCC2)n(C)c(=O)c1O | 0.012 |
| Cn1c(C2CCOC2)nc(C(=O)NCc2ccc(F)cc2S(C)(=O)=O)c(O)c1=O (racemic) | 0.009 |
| Cn1ncnc1-c1cc(F)ccc1CNC(=O)c1nc(C2CCOCC2)n(C)c(=O)c1O | 0.009 |
| Cn1cnnc1-c1cc(F)ccc1CNC(=O)c1nc(C2CCOC2)n(C)c(=O)c1O (racemic) | 0.018 |
| CN1C(C)(C)CN(c2cc(F)ccc2CNC(=O)c2nc(C3CCOCC3)n(C)c(=O)c2O)S1(=O)=O | 0.006 |
| Cn1c(C2CCOCC2)nc(C(=O)NCc2ccc(F)cc2N2CCCCS2(=O)=O)c(O)c1=O | 0.011 |
| Cc1cnnn1-c1cc(F)ccc1CNC(=O)c1nc(C2CCOCC2)n(C)c(=O)c1O | 0.013 |
| Cn1c(C2=CCOC2)nc(C(=O)NCc2ccc(F)cc2)c(O)c1=O | 0.019 |

— ChEMBL document CHEMBL3351431, “Synthesis and evaluation of C2-carbon-linked heterocyclic-5-hydroxy-6-oxo-dihydropyrimidine-4-carboxamides as HIV-1 integrase inhibitors” (Bioorg Med Chem Lett, 2015)
